Common to all, as to experiment: NCI-60 cell line screen, 48 h
The subject of assay [1] is MOLT-4 leukemia.
Assay [2] relates to SK-MEL-2 melanoma.
The subject of assay [3] is TK-10 renal.
The test system of assay [4] is K-562 leukemia.
Assay [5] deals with HOP-92 NSCLC.
Assay [6] has as its system HCT-15 colon.
Assay [7] has as its system UACC-62 melanoma.
The test system of assay [8] is LOX IMVI melanoma.
Assay [9] relates to MDA-MB-435.
Assay [10] has as its system NCI-H522 lung.
Assay [11] has as its system NCI/ADR-RES ovarian.
Assay [12] deals with CCRF-CEM leukemia.
The test system of assay [13] is NCI-H460 lung.
Assay [14] has as its system IGROV1 ovarian.
Assay [15] has as its system MCF7 breast.
The test system of assay [16] is OVCAR-8 ovarian.
For assay [17], the system named is SN12C renal.
For assay [18], the system named is SK-MEL-28 melanoma.
In assay [19] the test system is SF-295 CNS.
For assay [20], the system named is A498 renal.

Structures are written as SMILES.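 Protocol summary: plate cells (96-well), add compound at 5 concentrations, incubate 48 h, interpolate endpoints linearly. TGI is the concentration that stops growth completely.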

With `Cn1c(NNc2ccccc2)cc(=O)[nH]c1=O`, the TGI in [1], in [2], in assay [3], in assay [4], in assay [5] and in assay [6] was more than 100 µM each time. In addition, the TGI in [7] was more than 100 µM; in assay [8] it was more than 100 µM; in [9], 43.1 µM; in assay [10], 40.5 µM; in assay [11], more than 100 µM; in assay [12], 53 µM. For the same molecule, the TGI in [13], in [14], in assay [15], in [16], in assay [17] and in [18] was more than 100 µM throughout. Further, the TGI in [19] was more than 100 µM.
On to `CCCC(=O)NC(Nc1cc(C)ccn1)(C(=O)OCC)C(F)(F)F` (centres undefined), for which the TGI in assay [1], in assay [2], in [3], in [4], in [5] and in [6] was more than 100 µM each time. For the same molecule, the TGI in [7], in assay [8], in [9], in [10], in assay [11] and in assay [12] was more than 100 µM in each case. In addition, the TGI in [14], in assay [15], in [16], in assay [17], in assay [18] and in assay [19] was more than 100 µM throughout.
Take `CC(C)(C)n1c(=O)n2n(c1=O)Cc1cccc3cccc(c13)C2`: the TGI in assay [1] is 93.8 µM; in assay [2], 38.2 µM; in [3], more than 100 µM; in assay [4], 35.4 µM; in assay [5], 69.2 µM; in [6] it was 39.5 µM. Also, the TGI in [7] turned out to be 82.5 µM; in [8], 73.5 µM; in [9] it was 62 µM; in [10], 13.6 µM; in assay [11] it was 37.1 µM; in [12], 24.6 µM. In addition, the TGI in assay [13] turned out to be 23.9 µM; in assay [14], 38.5 µM; in assay [15], 92.4 µM; in assay [16], 69.9 µM; in [17], 46.3 µM; in [18], 58.8 µM. In [19], this molecule had a TGI of 54.2 µM.
`CCN(CC)C(=O)Cn1c(-c2ccccc2)cc2ccccc21`: the TGI in assay [1] was 42.7 µM; in [2] it was more than 100 µM; in assay [3] it was more than 100 µM; in [4] it was more than 100 µM; in assay [5], 77.7 µM; in [6] it was more than 100 µM. In addition, the TGI in [8], in assay [9], in assay [10], in [11], in assay [12] and in [13] was more than 100 µM in each case. The TGI in assay [14], in assay [15], in assay [16], in assay [17] and in assay [18] was more than 100 µM each time.
With `CC1=NN(C(=O)c2ccccc2O)C(=O)/C1=C/c1cccc(O)c1`, the TGI is more than 100 µM in assay [1]; more than 48.4 µM in [2]; more than 100 µM in assay [3]; more than 100 µM in assay [4]; more than 100 µM in assay [5]; more than 100 µM in assay [6]. For the same molecule, the TGI in assay [7] is 2.74 µM; in [20] it was 0.323 µM; in [8], more than 80.5 µM; in [10], more than 30.7 µM; in assay [11], more than 100 µM; in assay [12], more than 100 µM. The TGI in [13], in assay [15], in assay [16], in assay [17], in assay [18] and in assay [19] was more than 100 µM in each case.
As to `CC(=O)C1C(=O)C(=O)N(c2ccccc2)C1=O` (centres undefined), the TGI in assay [1], in [2], in [3], in assay [5], in assay [6] and in assay [7] was more than 100 µM each time. In addition, the TGI in assay [8], in assay [9], in assay [10], in assay [11], in assay [12] and in assay [13] was more than 100 µM in each case. For the same molecule, the TGI in assay [14], in [15], in [16], in [17], in assay [18] and in assay [19] was more than 100 µM in each case.
As for `O=P1(Oc2ccccc2)N=P(c2ccccc2)(c2ccccc2)C=C(c2ccc(Cl)cc2)N1` (centres undefined), the TGI in [1] came out at 22.4 µM; in assay [2], 27.6 µM; in [3] it was 26.8 µM; in assay [4], 22.2 µM; in [5], 25.4 µM; in assay [6], 21.9 µM. Besides, the TGI in assay [7] was 27.5 µM; in assay [9], 17.1 µM; in assay [10], 24.2 µM; in assay [11] it was 27.9 µM; in assay [12], 26.6 µM; in assay [13], 18.5 µM. The TGI in [14] came out at 26.5 µM; in [15], 9.31 µM; in assay [16], 29.8 µM; in assay [17], 32.4 µM; in [19], 19.8 µM.
In the case of `CCOP(=O)(OCC)C(C)(C)N(C)/C(F)=N/C(F)(F)F`, the TGI in [1], in [2], in assay [3], in assay [4], in assay [5] and in assay [6] was more than 100 µM throughout. Moreover, the TGI in [7], in [8], in assay [9], in assay [11], in [12] and in assay [13] was more than 100 µM each time. The TGI in assay [14], in assay [15], in assay [16], in assay [17], in assay [18] and in [19] was more than 100 µM throughout.

The record behind these values is PubChem BioAssay (NCI).
